Data published in patent publication US6844353B2, “Fungicidal properties of sampangine and its analogs to agriculturally important fungal plant pathogens” (The United States of America as represented by the …, priority 2003, dated 2005).
Like-named read-outs stand apart in the source and are kept apart here.

Assays:
[1] = system: C. fragariae isolate CF-75; assay: Detached strawberry leaf assay; format: in vivo, Colletotrichum fragariae; conditions: detached strawberry leaves (cultivar Chandler), five days after application
Text: Strawberry plants of the cultivar Chandler were maintained in a warm greenhouse under conditions suitable for optimum vegetative growth. The youngest fully expanded leaf with the entire petiole from each plant was collected. The petiole of each leaf was inserted into a small test tube (10×4 mm) and filled with sterile distilled water. The left leaflet of each leaf was inoculated with C. fragariae isolate CF-75 (1.5×10^6 conidia/ml) using a hand pump sprayer. The inoculated leaves were placed in a dew chamber and incubated overnight at 30° C. and 100% relative humidity, removed from the dew chamber and allowed to dry. The test compound was applied using a chromatography sprayer until the upper surface of each leaflet was coated. After allowing the leaves to air dry for 2 hours, the right leaflet of each leaf was inoculated with C. fragariae isolate CF-75. The leaves were incubated in the dew chamber at 30° C. and 100% relative humidity for 48 hours. The leaves were then removed from the dew chamber and held in a moist chamber for 3 days (total of five days since test compounds were applied). The number of lesions on each leaflet were then counted.

C. gloeosporioides = assay: 96-well microtiter plate assay, fungal growth inhibition; format: cell-based, Colletotrichum gloeosporioides; conditions: Colletotrichum gloeosporioides, read-out: Percent inhibition−Percent Stimulation±SEM
Text: (§1) Pathogen production. Isolates of Colletotrichum acutatum Simmonds, Colletotrichum fragariae Brooks, and Colletotrichum gloeosporioides (Penz.) Penz. & Sacc. in Penz. were obtained from B. J. Smith, USDA, ARS, Small Fruit Research Station, Poplarville, Miss. Colletotrichum fragariae (isolate CF63), C. acutatum (isolate CAGoff), and C. gloeosporioides (isolate CG162) were used for all pathogen and bioautography studies. Isolate CF63 is one of the most virulent isolates at infecting strawberry plants and inducing both crown and fruit rot (Smith and Black, 1990). CF63, CAGoff, and CG162 were used as standard test isolates because of our extensive knowledge of these isolates and their known fungicide sensitivity profiles in both bioautography and microtiter formats. The three Colletotrichum species were isolated from strawberry (Fragaria x ananassa Duchesne). Botrytis cinerea Pers.: Fr, was isolated from commercial grape (Vitis vinifera L.) and Fusarium oxysporum Schlechtend: Fr from orchid (Cynoches sp.). Phomopsis viticola (Sacc.) and P. obscurans (Ellis & Everh.) Sutton were from Mike A. Ellis, Ohio State University, Wooster, Ohio. Fungi were grown on potato-dextrose agar (PDA, Difco, Detroit, Mich.) in 9 cm petri dishes and incubated in a growth chamber at 24±2° C. and under cool-white fluorescent lights ([…]·m^−2·sec^−1 light) with 12 hour photoperiod.
(§2) Inoculum preparation. Conidia were harvested from 7-10 day-old cultures by flooding plates with 5 mL of sterile distilled water and dislodging conidia by softly brushing the colonies with an L-shaped glass rod. Conidial suspensions were filtered through sterile miracloth (Calbiochem-Novabiochem Corp., La Jolla, Calif.) to remove mycelia. Conidia concentrations were determined photometrically, from a standard curve based on the percent of transmittance (% T) at 625 nm and suspensions were then adjusted with sterile distilled water to a concentration of 1.0×10^6 conidia/mL.
(§3) Microtiter assay. A standardized 96-well microtiter plate assay developed for discovery of natural product fungicidal agents was used to evaluate naturally occurring antifungal agents from Macaranga monanara. A 96-well microtiter assay was used to determine sensitivity of B. cinerea, C. acutatum, C. fragariae, C. gloeosporioides, F. oxysporum, Phomopsis viticola, and P. obscurans to the various antifungal agents in comparison with known fungicidal standards. Vinclozolin, captan, and thiabendazole, which represent three different modes of action, were used as standards in this experiment. Each fungus was challenged in a dose-response format using test compounds where the final treatment concentrations were 0.3, 3.0 and 30.0 μM. Microtiter plates (Nunc MicroWell, untreated; Roskilde, Denmark) were covered with a plastic lid and incubated in a growth chamber as described previously for fungal growth. Growth was then evaluated by measuring absorbance of each well at 620 nm using a microplate photometer (Packard Spectra Count, Packard Instrument Co., Downers Grove, Ill.). Microtiter plates (Nunc MicroWell, untreated; Roskilde, Denmark) were covered with a plastic lid and incubated in a growth chamber at 24±1° C. and 12 hour photoperiod under 60±5 μmol light. Growth was then evaluated by measuring absorbance of each well at 620 nm using a microplate photometer (Packard Spectra Count, Packard Instrument Co., Downers Grove, Ill.).
(§4) Microbioassy Experimental Design. Chemical sensitivity each of B. cinerea, C. acutatum, C. fragariae, C. gloeosporiodes, F. oxysporum, Phomopsis viticola, and P. obscurans was evaluated using 96-well plate microbioassay format. Each chemical was evaluated in duplicate at each dose (0.3, 3.0 and 30.0 μM). […]

B. cinerea = assay: as above; format: cell-based, Botrytis cinerea; conditions: Botrytis cinerea, read-out: Percent inhibition−Percent Stimulation±SEM
Text: as §1, §2, §3, §4

F. oxysporum = assay: as above; format: cell-based, Fusarium oxysporum; conditions: Fusarium oxysporum, read-out: Percent inhibition−Percent Stimulation±SEM
Text: as §1, §2, §3, §4

C. acutatum = assay: as above; format: cell-based, Colletotrichum acutatum; conditions: Colletotrichum acutatum, read-out: Percent inhibition−Percent Stimulation±SEM
Text: as §1, §2, §3, §4

C. fragariae = assay: as above; format: cell-based, Colletotrichum fragariae; conditions: Colletotrichum fragariae, read-out: Percent inhibition−Percent Stimulation±SEM
Text: as §1, §2, §3, §4

CO/C=C(/C(=O)OC)c1ccccc1Oc1cc(Oc2ccccc2C#N)ncn1 [Azoxystrobin]
Disease severity scores (# disease lesions) ([1]; Concentration 625 (unit not given)): 4.46
Disease severity scores (# disease lesions) ([1]; Concentration 1250 (unit not given)): 1.58
Disease severity scores (# disease lesions) ([1]; Concentration 2500 (unit not given)): 3.54

CC(C)NC(=O)N1CC(=O)N(c2cc(Cl)cc(Cl)c2)C1=O [Iprodione]
inhibition at 0.3 µM (C. gloeosporioides; 48 h): -33.4 ± 10.1%
inhibition at 3 µM (C. gloeosporioides; 48 h): -49.6 ± 8.4%
inhibition at 30 µM (C. gloeosporioides; 48 h): 23.4 ± 9.1%
inhibition at 0.3 µM (C. gloeosporioides; 72 h): -17.5 ± 6.7%
inhibition at 3 µM (C. gloeosporioides; 72 h): -30.7 ± 4%
inhibition at 30 µM (C. gloeosporioides; 72 h): -17.4 ± 7.9%
inhibition at 0.3 µM (B. cinerea; 48 h): -10.4 ± 11.1%
inhibition at 3 µM (B. cinerea; 48 h): 34.2 ± 29.1%
inhibition at 30 µM (B. cinerea; 48 h): 38.1 ± 29.3%
inhibition at 0.3 µM (B. cinerea; 72 h): 28.3 ± 27.9%
inhibition at 3 µM (B. cinerea; 72 h): 43.3 ± 20.5%
inhibition at 30 µM (B. cinerea; 72 h): 41.3 ± 20.6%
inhibition at 0.3 µM (F. oxysporum; 48 h): 1.8 ± 2.6%
inhibition at 3 µM (F. oxysporum; 48 h): 8.3 ± 3.1%
inhibition at 30 µM (F. oxysporum; 48 h): 7.7 ± 4.6%
inhibition at 0.3 µM (F. oxysporum; 72 h): -2.3 ± 3%
inhibition at 3 µM (F. oxysporum; 72 h): -4.1 ± 4%
inhibition at 30 µM (F. oxysporum; 72 h): -11.2 ± 5.3%
inhibition at 0.3 µM (C. acutatum; 48 h): -26.4 ± 10.7%
inhibition at 3 µM (C. acutatum; 48 h): -18.1 ± 3.2%
inhibition at 30 µM (C. acutatum; 48 h): -27.9 ± 5.5%
inhibition at 0.3 µM (C. acutatum; 72 h): -26.8 ± 9.9%
inhibition at 3 µM (C. acutatum; 72 h): -10.7 ± 3.1%
inhibition at 30 µM (C. acutatum; 72 h): -64.8 ± 4%
inhibition at 0.3 µM (C. fragariae; 48 h): -36.4 ± 12.3%
inhibition at 3 µM (C. fragariae; 48 h): -42.6 ± 10.4%
inhibition at 30 µM (C. fragariae; 48 h): -63.2 ± 10.7%
inhibition at 0.3 µM (C. fragariae; 72 h): -17.1 ± 3.6%
inhibition at 3 µM (C. fragariae; 72 h): -24 ± 4.6%
inhibition at 30 µM (C. fragariae; 72 h): -57.7 ± 12%
